Structures can show the parent of a compound that is named as a salt. A value given as a limit tells only on which side of the number the result lay.

Take `Nc1nc(-c2ccco2)c2nnn(Cc3cc(F)ccc3F)c2n1` [Example 65, 3-(2,5-difluorobenzyl)-7-(2-furyl)-3H-[1,2,3]triazolo[4,5-d]pyrimidine-5-amine]: the melting point was 208.1 to 208.2 °C. The figure for `C=CCOCc1cccc(Cn2nnc3c(-c4ccco4)nc(N(CC=C)CC=C)nc32)n1` [Example 182, 3-(6-Allyloxymethyl-2-pyridylmethyl)-N,N-diallyl-7-(2-furyl)-3H-[1,2,3]triazolo[4,5-d]pyrimidine-5-amine] is 92.3 to 92.7 °C; for `CC(=O)NCc1cccc(Cn2nnc3c(-c4ccco4)nc(N)nc32)c1` [Example 68, N-(3-(5-amino-7-(2-furyl)-3H-[1,2,3]triazolo[4,5-d]pyrimidin-3-ylmethyl)benzyl)acetamide] it is 228.1 to 229.3 °C.

For `COc1cccc(Cn2nnc3c(-c4ccco4)nc(N)nc32)n1` [Example 32, 7-(2-furyl)-3-(6-methoxy-2-pyridylmethyl)-3H-[1,2,3]triazolo[4,5-d]pyrimidine-5-amine], the melting point was 191.4 to 192 °C.

As to `CC(C)c1cccc(Cn2nnc3c(-c4ccco4)nc(N)nc32)n1` [Example 197, 7-(2-furyl)-3-(6-isopropyl-2-pyridylmethyl)-3H-[1,2,3]triazolo[4,5-d]pyrimidine-5-amine], the melting point lay within 188.3 to 188.5 °C. Take `N#CCc1cccc(Cn2nnc3c(-c4ccco4)nc(N)nc32)n1` [Example 220, 3-(6-Cyanomethyl-2-pyridylmethyl)-7-(2-furyl)-3H-[1,2,3]triazolo[4,5-d]pyrimidine-5-amine]: the melting point is 223.3 to 223.4 °C. Compound `Nc1nc(-c2ccco2)c2nnn(Cc3cccc(CBr)n3)c2n1` [Example 218, 3-(6-bromomethyl-2-pyridylmethyl)-7-(2-furyl)-3H-[1,2,3]triazolo[4,5-d]pyrimidine-5-amine] displayed a melting point of 196 to 196.1 °C. The value for `Nc1nc(-c2ccco2)c2nnn(CC(=O)Nc3ccccc3)c2n1` [Example 54, (5-amino-7-(2-furyl)-3H-[1,2,3]triazolo[4,5-d]pyrimidin-3-yl)-N-phenylacetamide] was 292.2 to 292.3 °C; that for `Nc1nc(-c2ccco2)c2nnn(Cc3ccc4cc[nH]c4c3)c2n1` [Example 152, 7-(2-Furyl)-3-(6-indolylmethyl)-3H-[1,2,3]triazolo[4,5-d]pyrimidine-5-amine] was 298.9 to 299 °C. Turning to `Cc1ccc(-c2nc(N)nc3c2nnn3Cc2ccc([N+](=O)[O-])cc2)o1` [Example 268, 7-(5-methyl-2-furyl)-3-(4-nitrobenzyl)-3H-[1,2,3]triazolo[4,5-d]pyrimidine-5-amine], the melting point lay in the range of 248.1 to 249 °C. The figure for `Nc1nc(-c2cncs2)c2nnn(Cc3cccc([N+](=O)[O-])c3)c2n1` [Example 45, 3-(3-nitrobenzyl)-7-(5-thiazolyl)-3H-[1,2,3]triazolo[4,5-d]pyrimidine-5-amine] is 190.4 to 190.8 °C. In the case of `Nc1nc(-c2ccco2)c2nnn(Cc3ccc4nonc4c3)c2n1` [Example 111], the melting point lay within 244.1 to 244.6 °C.

Take `Nc1nc(-c2ccco2)c2nnn(Cc3ccc(N)c(F)c3)c2n1` [Example 147, 3-(4-amino-3-fluorobenzyl)-7-(2-furyl)-3H-[1,2,3]triazolo[4,5-d]pyrimidine-5-amine]: the melting point was > 200 °C (dec.). Regarding `Nc1nc(-c2ccco2)c2nnn(Cc3ccc(Cl)c(N)c3)c2n1` [Example 114, 3-(3-amino-4-chlorobenzyl)-7-(2-furyl)-3H-[1,2,3]triazolo[4,5-d]pyrimidine-5-amine], the melting point is 256.7 to 257.1 °C.

Compound `CCCc1cccc(Cn2nnc3c(-c4ccco4)nc(N)nc32)n1` [Example 216, 7-(2-furyl)-3-(6-n-propyl-2-pyridylmethyl)-3H-[1,2,3]triazolo[4,5-d]pyrimidine-5-amine] gave a melting point of 178.3 to 178.5 °C. `Cc1c(Cn2nnc3c(-c4ccco4)nc(N)nc32)cccc1[N+](=O)[O-]` [Example 88, 7-(2-furyl)-3-(2-methyl-3-nitrobenzyl)-3H-[1,2,3]triazolo[4,5-d]pyrimidine-5-amine]: the melting point fell in the range of 258.8 to 259 °C. The value for `Cc1ccc(-c2nc(N)nc3c2nnn3Cc2ccc(N)c(F)c2)o1` [Example 174, 3-(4-amino-3-fluorobenzyl)-7-(5-methyl-2-furyl)-3H-[1,2,3]triazolo[4,5-d]pyrimidine-5-amine] was > 200 °C (dec.); that for `COCc1cccc(Cn2nnc3c(-c4ccc(C)o4)nc(N)nc32)n1` [Example 183, 3-(6-methoxymethyl-2-pyridylmethyl)-7-(5-methyl-2-furyl)-3H-[1,2,3]triazolo[4,5-d]pyrimidine-5-amine] was 152 to 153.5 °C.

As for `Nc1nc(-c2ccco2)c2nnn(Cc3ccc4[nH]ncc4c3)c2n1` [Example 200, 7-(2-furyl)-3-(5-indazolylmethyl)-3H-[1,2,3]triazolo[4,5-d]pyrimidine-5-amine], the melting point was > 300 °C (dec.). As to `Nc1nc(-c2ccco2)c2nnn(Cc3cccc(Cl)c3)c2n1` [Example 27, 3-(3-chlorobenzyl)-7-(2-furyl)-3H-[1,2,3]triazolo[4,5-d]pyrimidine-5-amine], the melting point lay in the range of 209.9 to 210.1 °C. `Nc1nc(-c2cccs2)c2nnn(Cc3ccccc3F)c2n1` [Example 35, 3-(2-fluorobenzyl)-7-(2-thienyl)-3H-[1,2,3]triazolo[4,5-d]pyrimidine-5-amine] came in with a melting point of 174 to 174.2 °C. The figure for `COc1ccc(Cn2nnc3c(-c4ccco4)nc(N)nc32)cc1OC` (as salt: trifluoroacetate) [Example 122, 3-(3,4-dimethoxybenzyl)-7-(2-furyl)-3H-[1,2,3]triazolo[4,5-d]pyrimidine-5-amine trifluoroacetate salt] is 227.5 to 228.5 °C; for `Cc1ccc(-c2nc(N)nc3c2nnn3Cc2cccs2)o1` [Example 61, 7-(5-methyl-2-furyl)-3-(2-thienylmethyl)-3H-[1,2,3]triazolo[4,5-d]pyrimidine-5-amine] it is 193.8 to 194.1 °C. In turn, `CC(C)(C)OC(=O)NCc1ccccc1Cn1nnc2c(-c3ccco3)nc(N)nc21` [Example 157, tert-butyl N-(2-(5-amino-7-(2-furyl)-3H-[1,2,3]triazolo[4,5-d]pyrimidine-3-ylmethyl)benzyl)carbamate] showed a melting point of 204.2 to 204.4 °C. Turning to `Cc1csc(-c2nc(N)nc3c2nnn3Cc2cccc([N+](=O)[O-])c2)n1` [Example 109, 7-(4-methyl-2-thiazolyl)-3-(3-nitrobenzyl)-3H-[1,2,3]triazolo[4,5-d]pyrimidine-5-amine], the melting point lay within 289.8 to 289.9 °C. The figure for `Nc1nc(-c2ccco2)c2nnn(CC(=O)c3ccccc3)c2n1` [Example 211, 2-(5-Amino-7-(2-furyl)-3H-[1,2,3]triazolo[4,5-d]pyrimidin-3-yl)-1-phenylethanone] is 257.1 to 257.3 °C; for `C=CCOCc1cccc(Cn2nnc3c(-c4ccc(C)o4)nc(N)nc32)n1` [Example 186, 3-(6-allyloxymethyl-2-pyridylmethyl)-7-(5-methyl-2-furyl)-3H-[1,2,3]triazolo[4,5-d]pyrimidine-5-amine] it is 149 to 149.3 °C. On to `Cc1cccc(C(=O)C(C)n2nnc3c(-c4ccco4)nc(N)nc32)n1` (stereo not shown) [Example 190, 2-(5-amino-7-(2-furyl)-3H-[1,2,3]triazolo[4,5-d]pyrimidin-3-yl)-1-(6-methyl-2-pyridyl)propanone], for which the melting point fell in the range of 290.2 to 290.3 °C.

Compound `Cc1ccc(-c2nc(N)nc3c2nnn3Cc2cccc(Cl)c2)o1` [Example 62, 3-(3-chlorobenzyl)-7-(5-methyl-2-furyl)-3H-[1,2,3]triazolo[4,5-d]pyrimidine-5-amine] showed a melting point of 210.4 to 210.5 °C.

Consider `Nc1nc(-c2ccco2)c2nnn(Cc3cccc(CN4C(=O)c5ccccc5C4=O)n3)c2n1` [Example 164, 7-(2-furyl)-3-(6-phthalimidomethyl-2-pyridylmethyl)-3H-[1,2,3]triazolo[4,5-d]pyrimidine-5-amine], for which the melting point fell in the range of 120.1 to 121 °C.

In the case of `CC(C)COCc1cccc(Cn2nnc3c(-c4ccco4)nc(N)nc32)n1` [Example 217, 7-(2-furyl)-3-(6-isobutyloxymethyl-2-pyridylmethyl)-3H-[1,2,3]triazolo[4,5-d]pyrimidine-5-amine], the melting point is 146.7 to 149.3 °C. The compound `Cc1nc(Cn2nnc3c(-c4ccco4)nc(N)nc32)cs1` [Example 100, 7-(2-furyl)-3-(2-methylthiazol-4-ylmethyl)-3H-[1,2,3]triazolo[4,5-d]pyrimidine-5-amine] returned a melting point of 285.7 to 285.9 °C. `CC(C)(C)OC(=O)n1cc(Cn2nnc3c(-c4ccco4)nc(N)nc32)c2ccccc21` [Example 204, tert-butyl 3-(5-amino-7-(2-furyl)-3H-[1,2,3]triazolo[4,5-d]pyrimidine-3-ylmethyl)indole-1-carboxylate] yielded a melting point of 143.6 to 144.5 °C. The value for `Cc1cc(Cn2nnc3c(-c4ccco4)nc(N)nc32)ccc1[N+](=O)[O-]` [Example 94, 7-(2-furyl)-3-(3-methyl-4-nitrobenzyl)-3H-[1,2,3]triazolo[4,5-d]pyrimidine-5-amine] was 237.8 to 238 °C; that for `Cc1ccc(-c2nc(N)nc3c2nnn3Cc2cccc(N)c2C)o1` [Example 180, 3-(3-amino-2-methylbenzyl)-7-(5-methyl-2-furyl)-3H-[1,2,3]triazolo[4,5-d]pyrimidine-5-amine] was 278.4 to 279.9 °C.

Turning to `COc1ccc(F)c(Cn2nnc3c(-c4ccco4)nc(N)nc32)c1` [Example 51, 3-(2-fluoro-5-methyoxybenzyl)-7-(2-furyl)-3H-[1,2,3]triazolo[4,5-d]pyrimidine-5-amine], the melting point lay in the range of 182.9 to 183.1 °C. The figure for `Nc1nc(-c2ccco2)c2nnn(CC(=O)c3ccccc3[N+](=O)[O-])c2n1` [Example 235, 2-(5-amino-7-(2-furyl)-3H-[1,2,3]triazolo[4,5-d]pyrimidin-3-yl)-1-(2-nitrophenyl)ethanone] is 231.6 to 231.7 °C.

For orientation: melting point means the temperature of the solid-liquid transition.

(Values after patent US7589097B2, “Triazol[4,5-d] pyramidine derivatives and their use as purinergic receptor antagonists” (Vernalis Research Limited, priority 2001, dated 2009).)
